Data reported in ChEMBL document CHEMBL1781966, “Lead optimization of 4-imidazolylflavans: new promising aromatase inhibitors” (Eur J Med Chem, 2011).

Target: T1, Aromatase (Homo sapiens, UniProt P11511)
T1 sequence (P11511 whole entry): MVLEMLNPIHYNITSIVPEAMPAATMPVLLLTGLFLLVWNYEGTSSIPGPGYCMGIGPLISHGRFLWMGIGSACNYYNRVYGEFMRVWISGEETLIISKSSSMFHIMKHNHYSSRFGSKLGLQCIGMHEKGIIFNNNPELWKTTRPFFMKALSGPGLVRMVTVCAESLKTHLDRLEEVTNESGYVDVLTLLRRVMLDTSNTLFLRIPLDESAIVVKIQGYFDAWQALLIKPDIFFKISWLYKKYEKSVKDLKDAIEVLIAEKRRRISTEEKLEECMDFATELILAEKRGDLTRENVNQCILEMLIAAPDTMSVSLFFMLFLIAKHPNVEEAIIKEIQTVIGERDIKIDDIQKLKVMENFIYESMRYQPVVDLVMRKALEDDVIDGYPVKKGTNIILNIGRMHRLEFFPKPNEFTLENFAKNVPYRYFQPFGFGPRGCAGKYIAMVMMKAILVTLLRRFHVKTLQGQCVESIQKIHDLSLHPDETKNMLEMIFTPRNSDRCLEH
Experiment: Inhibition of aromatase in human placental microsomes assessed as inhibition of aromatization of [1,2,6,7-3H] androstenedione by flow scintillation analysis
Design: species or system Placenta

## N#Cc1ccc(C2CC(n3ccnc3)c3ccc4ccccc4c3O2)cc1 (stereo in doubt)
  IC50: 34 nM

## N#Cc1ccc(C2CC(n3ccnc3)c3ccc4ccccc4c3O2)cc1 (cis isomer)
  IC50: 534 nM

## Oc1ccc(C2CC(n3ccnc3)c3ccc4ccccc4c3O2)cc1 (mixture of isomers)
  IC50: 32 nM

## c1ccc(C2CC(n3ccnc3)c3ccc4ccccc4c3O2)cc1 (trans isomer)
  IC50: 36 nM

## N#Cc1ccc(C2CC(n3ccnc3)c3ccc4ccccc4c3O2)cc1 (mixture of isomers)
  IC50: 78 nM
